In PubChem BioAssay AID248 (DTP/NCI, 2004):
Values joined by “and” are separate entries in the source; they are usually repeats but may differ in a detail not shown here. Identical values can stand only once. Toxic doses and inconclusive results are not listed. Rule as the data show it: active = T/C of 150% or more; inactive = T/C below 125%. Square brackets hold non-standard residues; d marks the D form. Peptide text beside a SMILES is read from it. ξ: configuration not given here. ξV = CC(C)C(N)C(=O)O

Tested on: L1210 leukemia ip in BDF1 mice, survival T/C
Assay: NCI In Vivo Anticancer Drug Screen. Data for tumor model L1210 Leukemia (intraperitoneal) in B6D2F1 (BDF1) mice
Conditions: endpoint: mean survival time, higher = longer survival
Summary of the method: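 Read-out is survival time, reported as the treated-group measurement over the vehicle-control measurement.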

[1] = dose: 100.0 mg/kg/injection, schedule: Q04DX003 (ip), vehicle: saline
[2] = dose: 200.0 mg/kg/injection, schedule: Q04DX003 (ip), vehicle: saline
[3] = dose: 400.0 mg/kg/injection, schedule: Q04DX003 (ip), vehicle: saline
[4] = dose: 100.0 mg/kg/injection, schedule: Q01DX009 (ip), vehicle: saline with Tween-80
[5] = dose: 200.0 mg/kg/injection, schedule: Q01DX009 (ip), vehicle: saline with Tween-80
[6] = dose: 400.0 mg/kg/injection, schedule: Q01DX009 (ip), vehicle: saline with Tween-80
[7] = dose: 100.0 mg/kg/injection, schedule: Q01DX001 (ip), vehicle: saline
[8] = dose: 200.0 mg/kg/injection, schedule: Q01DX001 (ip), vehicle: saline
[9] = dose: 400.0 mg/kg/injection, schedule: Q01DX001 (ip), vehicle: saline
[10] = dose: 100.0 mg/kg/injection, schedule: Q04DX003 (ip), vehicle: saline with Tween-80
[11] = dose: 200.0 mg/kg/injection, schedule: Q04DX003 (ip), vehicle: saline with Tween-80
[12] = dose: 400.0 mg/kg/injection, schedule: Q04DX003 (ip), vehicle: saline with Tween-80

Measured: T/C

CCOc1nsc(OCC)n1
inactive: dose: 75.0 mg/kg/injection, schedule: Q01DX009 (ip), vehicle: other 103 % of control | [1] 98 % of control | dose: 150.0 mg/kg/injection, schedule: Q01DX009 (ip), vehicle: other 107 % of control | [2] 101 % of control | dose: 300.0 mg/kg/injection, schedule: Q01DX009 (ip), vehicle: other 93 % of control | [3] 103 % of control

COC(=O)CCCCC(=O)OC
inactive: [4] 103 % of control | [5] 102 % of control | [6] 102 % of control

Cc1ccc(C)c(NC(=O)NCc2ccco2)c1
inactive: [4] 97 % of control | [5] 89 % of control

C[n+]1csc2ccccc21
inactive: [7] 108 % of control | [8] 103 % of control | [9] 103 % of control

CC(C)=CCNc1ncnc2c1c(C(N)=O)cn2C1OC(CO)C(O)C1O (configuration not stated)
inactive: dose: 100.0 mg/kg/injection, schedule: Q01DX005 (ip), vehicle: saline 107 % of control | dose: 200.0 mg/kg/injection, schedule: Q01DX005 (ip), vehicle: saline 123 % of control

CCc1ccc(N=Nc2c(F)c(F)c(NC(C)=O)c(F)c2F)cc1
inactive: dose: 100.0 mg/kg/injection, schedule: Q01DX001 (ip), vehicle: carboxymethylcellulose (CMC) 102 % of control | dose: 200.0 mg/kg/injection, schedule: Q01DX001 (ip), vehicle: carboxymethylcellulose (CMC) 91 % of control | dose: 400.0 mg/kg/injection, schedule: Q01DX001 (ip), vehicle: carboxymethylcellulose (CMC) 91 % of control

CC(C)C(N)C(=O)NCC(=O)NCC(=O)O (stereo not drawn) (H-[ξV]-Gly-Gly-OH)
inactive: dose: 100.0 mg/kg/injection, schedule: Q01DX009 (ip), vehicle: saline 98 % of control | [1] 102 % of control | dose: 200.0 mg/kg/injection, schedule: Q01DX009 (ip), vehicle: saline 96 % of control | [2] 94 % of control | dose: 400.0 mg/kg/injection, schedule: Q01DX009 (ip), vehicle: saline 98 % of control | [3] 100 % of control

O=C1CCc2c(Cl)sc(Cl)c21
inactive: dose: 50.0 mg/kg/injection, schedule: Q01DX009 (ip), vehicle: saline with Tween-80 91 % of control | [4] 88 % of control | [5] 96 % of control

Cc1cc(NC(=O)Nc2ccccc2C)no1
inactive: [4] 89 % of control | [10] 97 % of control | [5] 93 % of control | [11] 101 % of control | [6] 91 % of control | [12] 97 % of control

COc1cc2c(cc1OC)C13CCN4CC5=CCOC6CC(=O)N2C1C6C5CC43 (configuration not stated)
inactive: dose: 9.5 mg/kg/injection, schedule: Q01DX001 (ip), vehicle: other 103 % of control | dose: 19.0 mg/kg/injection, schedule: Q01DX001 (ip), vehicle: other 103 % of control | dose: 25.0 mg/kg/injection, schedule: Q01DX015 (ip), vehicle: saline 101 % of control | dose: 38.0 mg/kg/injection, schedule: Q01DX001 (ip), vehicle: other 97 % of control | dose: 50.0 mg/kg/injection, schedule: Q01DX015 (ip), vehicle: saline 100 % of control | dose: 100.0 mg/kg/injection, schedule: Q01DX015 (ip), vehicle: saline 91 % of control

O=C(Nc1ccccc1)SCCSC(=O)Nc1ccccc1
inactive: dose: 100.0 mg/kg/injection, schedule: Q01DX001 (ip), vehicle: saline with Tween-80 88 % of control | [10] 97 % of control | dose: 200.0 mg/kg/injection, schedule: Q01DX001 (ip), vehicle: saline with Tween-80 88 % of control | [11] 88 % of control | dose: 400.0 mg/kg/injection, schedule: Q01DX001 (ip), vehicle: saline with Tween-80 90 % of control | [12] 87 % of control

O=c1[nH]cc(Cc2ccc(O)cc2)c(=O)[nH]1
inactive: dose: 50.0 mg/kg/injection, schedule: Q01DX005 (ip), vehicle: saline with Tween-80 106 % of control | dose: 100.0 mg/kg/injection, schedule: Q01DX005 (ip), vehicle: saline with Tween-80 101 % of control | dose: 200.0 mg/kg/injection, schedule: Q01DX005 (ip), vehicle: saline with Tween-80 98 % of control | dose: 400.0 mg/kg/injection, schedule: Q01DX005 (ip), vehicle: saline with Tween-80 109 % of control

O=c1c2ccccc2[nH]c2ccc(Cl)cc12
inactive: dose: 100.0 mg/kg/injection, schedule: Q01DX009 (ip), vehicle: Klucel (hydroxypropylcellulose) (HPC) 92 % of control | dose: 100.0 mg/kg/injection, schedule: Q04DX003 (ip), vehicle: Klucel (hydroxypropylcellulose) (HPC) 96 % of control | dose: 200.0 mg/kg/injection, schedule: Q01DX009 (ip), vehicle: Klucel (hydroxypropylcellulose) (HPC) 96 % of control | dose: 200.0 mg/kg/injection, schedule: Q04DX003 (ip), vehicle: Klucel (hydroxypropylcellulose) (HPC) 91 % of control | dose: 400.0 mg/kg/injection, schedule: Q01DX009 (ip), vehicle: Klucel (hydroxypropylcellulose) (HPC) 86 % of control | dose: 400.0 mg/kg/injection, schedule: Q04DX003 (ip), vehicle: Klucel (hydroxypropylcellulose) (HPC) 100 % of control

NCCSc1ccccc1
inactive: dose: 25.0 mg/kg/injection, schedule: Q04DX002 (ip), vehicle: saline with Tween-80 92 % of control | dose: 50.0 mg/kg/injection, schedule: Q04DX002 (ip), vehicle: saline with Tween-80 101 % of control | dose: 100.0 mg/kg/injection, schedule: Q04DX002 (ip), vehicle: saline with Tween-80 96 % of control and 114 % of control

O=C(/C=C/c1ccccc1)c1cccc(Br)c1
inactive: [4] 106 % of control | [10] 97 % of control | [5] 91 % of control | [11] 96 % of control | [6] 96 % of control | [12] 96 % of control

COc1ccc(CC2NCCc3cc(OC)c(OC)cc32)cc1OC (configuration not stated)
inactive: dose: 75.0 mg/kg/injection, schedule: Q01DX001 (ip), vehicle: saline 101 % of control

COc1ccc(C(=O)NC2C(OC(C)=O)OC(COC(C)=O)C(OC(C)=O)C2OC(C)=O)cc1 (configuration not stated)
inactive: [7] 98 % of control and 101 % of control | [8] 96 % of control and 106 % of control | [9] 90 % of control and 89 % of control

O=C(O)c1cc(Br)c(C(=O)O)cc1Br
inactive: [7] 100 % of control | [8] 102 % of control | [9] 96 % of control
